From the NIST ThermoML archive (doi:10.1016/j.jct.2013.10.039)
Numbers after ± are expanded uncertainties.

Settings: Liquid, Closed cell (Static) method

Cc1ccc(C)o1 [2,5-dimethylfuran]
Settings | vapor or sublimation pressure [kPa]
313.15 K | 13.94 ± 0.15
323.15 K | 21.54 ± 0.24
333.15 K | 32.2 ± 0.35
343.15 K | 46.74 ± 0.5
353.15 K | 66.08 ± 0.71
363.15 K | 91.23 ± 0.98
373.15 K | 123.28 ± 1.3
383.15 K | 163.43 ± 1.7
393.15 K | 212.88 ± 2.3

OCc1ccco1 [2-hydroxymethylfuran]
Settings | vapor or sublimation pressure [kPa]
273.11 K | 0.009 ± 0.001
283.08 K | 0.022 ± 0.001
293.16 K | 0.053 ± 0.002
303.09 K | 0.115 ± 0.003
313.15 K | 0.242 ± 0.01
323.15 K | 0.475 ± 0.02
323.16 K | 0.471 ± 0.019
331.87 K | 0.815 ± 0.033
333.15 K | 0.89 ± 0.04
333.17 K | 0.882 ± 0.036
341.85 K | 1.479 ± 0.06
343.15 K | 1.597 ± 0.019
343.19 K | 1.611 ± 0.019
351.81 K | 2.577 ± 0.029
353.15 K | 2.755 ± 0.03
353.2 K | 2.787 ± 0.031
362.09 K | 4.368 ± 0.047
363.15 K | 4.588 ± 0.049
363.2 K | 4.649 ± 0.05
372.04 K | 7.065 ± 0.074
373.15 K | 7.398 ± 0.077
382.09 K | 11.09 ± 0.12
383.15 K | 11.59 ± 0.12
392.15 K | 17.1 ± 0.18
393.15 K | 17.68 ± 0.18
402.18 K | 25.11 ± 0.26
412.11 K | 36.53 ± 0.38

CC(=O)CC(C)C [4-methylpentan-2-one]
Settings | vapor or sublimation pressure [kPa]
313.15 K | 5.882 ± 0.063
323.15 K | 9.417 ± 0.098
331.98 K | 13.85 ± 0.14
333.15 K | 14.56 ± 0.15
341.81 K | 20.72 ± 0.21
343.15 K | 21.82 ± 0.23
351.81 K | 30.29 ± 0.31
353.15 K | 31.8 ± 0.33
362.04 K | 43.51 ± 0.45
363.15 K | 45.19 ± 0.46
372.03 K | 60.56 ± 0.62
373.15 K | 62.78 ± 0.64
382.04 K | 82.62 ± 0.85
383.15 K | 85.44 ± 0.87
392.07 K | 110.74 ± 1.1
393.15 K | 114.12 ± 1.2
